{"source": "patent US11591288B2", "about": "“Compositions and methods for treating atherosclerotic cardiovascular disease” (GAVISH-GALILEE BIO APPLICATIONS LTD., priority 2017, dated 2023)", "key": {"[1]": {"system": "Human umbilical vein endothelial cells (HUVECs)", "experiment": "HDL-induced endothelial NO release, DAN assay", "format": "cell-based", "settings": "HDL 50 μg/ml preincubated 3 h with 10, 20, 50 μg/ml; HUVECs 2 h", "experimental": "HUVECs were stimulated for 2 h with HDL (50 μg/ml) preincubated with DMSO, lyso-DGTS and S1P at final concentrations of 10, 20, and 50 μg/ml for 3 h. Media were then collected and treated with nitrate reductase followed by analysis using the DAN assay. Data are expressed as NO concentration (μM) released by the cells. Each experiment was repeated separately at least three times. *p<0.05, ***p<0.0001 related to the control (HDL without lyso-DGTS or S1P). Statistics were analyzed using one-way annova Graphpad prism 5 software.\nHuman umbilical vein endothelial cells (HUVECs) were incubated for 2 hours with HDL preincubated with different concentration of lyso-DGTS or S1P for 3 hours, and NO production determined using 2,3-diaminonapthalene (DAN) assay."}, "[2]": {"experiment": "Clinical parameters of the in-vivo experiment (HFD fed Balb/c mice)", "set-up": "unit not given here", "settings": "lyso-DGTS via s.c. osmotic mini-pump, 28 days; for Glucose: p < 0.05 related to vehicle group", "experimental": "Eight weeks old Balb/c mice where fed with normal rodent diet (the “non” group n=11) for 12 weeks or with high-fat diet (HFD) for 8 weeks. After 8 weeks, the HFD group was divided into two groups both treated via osmotic mini-pumps implanted subcutaneously: (1) vehicle group (the pumps contained 100 μl of DDW+2% Tween 80; n=9); (2) Lyso-DGTS group (the pumps contained 100 μl lyso-DGTS 1.4 mg/ml in DDW+2% Tween 80; n=1). The mice then continued with the same diet for another 4 weeks. The pumps injected 3.5 μl solution each day for 28 days until the end of the experiment. Blood was drawn and centrifuged at 2000 rpm for five minutes, and the serum was stored at −70° C. until the analyses. Clinical parameters were measured. Serum diluted by 20 with PBS and PON1 lactonase activity was measured using dihydrocumarine assay.\nThe effect of lyso-DGTS on lactonase PON1 activity was examined using Balb/c mice fed with HFD. Three groups of Balb/c mice were used: 1) the “non” group […] mice which was fed with normal rodent diet for 12 weeks; 2) the “vehicle” group n=9 mice which was fed with HFD for 8 weeks and then continued with the same diet for another 4 weeks with the injection of DDW+2% Tween via osmotic mini-pumps implanted subcutaneously; and 3) the lyso-DGTS group n=1 mice which was fed similar to the vehicle group and injected with lyso-DGTS at 1.43 mg/ml in DDW+2% Tween 80 (FIG. 14). At the end of the protocol, blood was withdrawn and clinical parameters and lactonase PON1 activity were measured. […] Lactonase PON1 activity of the mice serum was measured using dehydrocumarine assay."}, "[3]": {"system": "rePON1", "experiment": "rePON1 arylesterase activity (phenyl acetate assay) after incubation with lyso-DGTS", "format": "biochemical", "settings": "0-100 μg/ml lyso-DGTS, 2 or 4 h, 37° C.", "experimental": "To 200 μl of rePON1 solution (5 μg/ml) in Tris-HCl buffer pH=8.4 was added 1 μl of lyso-DGTS dissolved in dimethyl sulfoxide (DMSO) to a final concentration of 1, 5, 10, 50, and 100 μg/ml. 1 μl DMSO was added to the control rePON1 solution. The mixtures were incubated at 37° C. for 2, 4, 24 or 48 h.\n10 μl from each solution were taken to a UV 96-well microplate wells containing 90 μl Tris-HCL buffer pH=8.4 with 1 mM CaCl2 (activity buffer). Then 100 μl phenyl acetate, 2 mM in the activity buffer was added (prepared from a stock of 100 mM phenyl acetate in DMSO). Phenyl acetate hydrolysis rate was measured at 270 nm, once in 25 seconds, for 15 minutes using SpectraMax M2 Reader. One unit of esterase activity was equal to the hydrolysis of 1 μmol of phenyl acetate/min. Lactonase and esterase unit activity were calculated by the following equation: Unit=slope (mOD/min)×5(per ml)×666.7(dilution)/700. Human Serum PON1 Lactonase Activity\nThe effect of lyso-DGTS on lactonase and arylesterase activities of rePON1 was examined. rePON1 (5 μg/ml in Tris buffer pH=8.4) was incubated with different concentrations of lyso-DGTS for 2, 4, 24, and 48 h at 37° C., and its lactonase and aryesterase activities were measured using dihydrocoumarin and phenyl acetate assays, respectively."}, "[4]": {"system": "rePON1", "experiment": "rePON1-lyso-DGTS interaction, Trp fluorescence quenching", "format": "binding", "experimental": "To 200 μl rePON1 (50 μg/ml=1.16 μM) solution in black 96-well plate wells was added lyso-DGTS at various concentration (0, 1, 5, 10, 25, 50, 75, and 100 μg/ml). The solutions were incubated for 2 h at 25° C. or 37° C. Fluorescence measurements were performed with an Infinite M200 PRO fluorescence spectrophotometer (Tecan) with emission spectra recorded from 320 to 450 nm at an excitation wavelength of 290 nm.\nThe effect of lyso-DGTS on rePON1 can result from a specific interaction between the lipid and the enzyme which was studied using Trp fluorescence quenching method. […] (FIG. 3A) and 37° C. (FIG. 3B) in the 300-450 nm range with an excitation wavelength of 290 nm. Lyso-DGTS quenched the fluorescence of rePON1 in a dose dependent manner at both temperatures.\nQuenching pathways can be described by the Stern-Volmer equation (eq. 1):\n[formula] where F0 and F are the fluorescence intensities in the absence and presence of quencher (lyso-DGTS), respectively, Ksv is the Stern-Volmer quenching constant, and [Q] is the quencher concentration (M).\nThe binding constant and binding sites were calculated using (eq. 2):\n[formula] where Ka is the binding constant, reflecting the degree of interaction between rePON1 and lyso-DGTS, and n is the number of binding sites specifying the number of lyso-DGTS molecules bound to a rePON1. […] (2.377×10^3 M^−1; FIG. 4C). The values obtained for n were not affected by the temperature and were equal to ˜1 (Table 4). The thermodynamic parameters: enthalpy (ΔH), entropy (ΔS), and free energy (ΔG) were calculated to characterize the type of rePON1-lyso-DGTS interaction."}}, "data": [{"smiles": "CC/C=C\\C/C=C\\C/C=C\\C/C=C\\C/C=C\\CCCC(=O)OCC(O)COCCC(C(=O)[O-])[N+](C)(C)C", "note": "(centres unmarked) [lyso-DGTS, lyso-diacylglyceryltrimethylhornmoserine]", "values": [{"measurement": "effect on HDL ability to induce endothelial NO release", "setting": "[1]", "result": "significantly increased the HDL ability to induce endothelial NO release at a dose dependent manner"}, {"measurement": "Cholesterol", "setting": "[2]", "result": "4.03 ± 0.40"}, {"measurement": "HDL", "setting": "[2]", "result": "4.37 ± 0.42"}, {"measurement": "Triglycerides", "setting": "[2]", "result": "0.84 ± 0.26"}, {"measurement": "Glucose", "setting": "[2]", "result": "5.99±1.4"}, {"measurement": "Glucose", "setting": "[2]; listed as Lyso-DGTS", "result": "5.99 ± 1.4"}, {"measurement": "effect on rePON1 arylesterase activity", "setting": "[3]", "result": "increases rePON1 lactonase and arylesterase activities in a dose and time dependent manner"}, {"measurement": "Stern-Volmer quenching constant Ksv, rePON1", "setting": "[4]; 25° C.", "result": "(1.18±0.13)×10^+4 M^−1"}, {"measurement": "Stern-Volmer quenching constant Ksv, rePON1", "setting": "[4]; 37° C.", "result": "(0.93±0.03)×10^+4 M^−1"}, {"measurement": "Binding constant Ka, lyso-DGTS-rePON1", "setting": "[4]; 298 K (25° C.)", "result": 10520, "unit": "M⁻¹"}, {"measurement": "Binding constant Ka, lyso-DGTS-rePON1", "setting": "[4]; 310 K (37° C.)", "result": 2377, "unit": "M⁻¹"}]}]}
